Laboratory results as given in article PMC7162492, “Pharmacological and pharmacokinetic profile of the novel ocular hypotensive prodrug CKLP1 in Dutch-belted pigmented rabbits” (PLoS ONE, 2020).
Where “and” joins values, the source holds several entries; their conditions need not be identical. Equal entries are not always repeated. Where two headings read alike, the source gives them in different places.

Tests used:
[1] = design: method as in earlier work; conditions: ref Roy Chowdhury U, Viker KB, Stoltz KL, et al. J Med Chem. 2016;59(13):6221-31; cited from earlier work
[2] = Plasma pharmacokinetics after single intravenous injection of CKLP1 (LC-MS/MS); type: in vivo, Dutch-belted pigmented rabbits
Method: (§1) LC-MS/MS analysis of all fluids were performed using a Waters (Milford, MA) Acquity UPLC BEH C18 column (1.7 μm, 2.1 x 50 mm) with an Agilent EC-C18 pre-column (2.7 μm, 2.1 x 5 mm) and a gradient elution program containing ultra-pure water and acetonitrile with 2.5 mM ammonium formate, at a flow rate of 0.2 ml/min. Flavopiridol was used as an internal standard. The column and auto-sampler temperatures were maintained at 40°C and 4°C, respectively. Source parameters were capillary voltage, 2.6 kV; source temperature, 150°C; desolvation temperature, 500°C; cone gas flow, 150 L/h; and desolvation gas flow, 800 L/h. The cone voltages and collision energies for CKLP1, levcromakalim and flavopiridol were determined by MassLynx-Intellistart software, v4.1, and were 32, 34 and 72 V (cone) and 20, 14 and 30 eV (collision), respectively. The retention times were 4.5 minutes for CKLP1, 5.9 minutes for levcromakalim and 5.7 minutes for flavopiridol.
(§2) To validate accurate measurement of CKLP1 and levcromakalim, known concentrations of CKLP1 (5, 10, 25, 50, 100, 250, 500 ng/ml) and levcromakalim (1, 5, 10, 25, 50, 100, 250 ng/ml) were added to human plasma (obtained from the Mayo Clinic Division of Transfusion Medicine under an Institutional Review Board approved protocol) to make calibration curves. Quality control was determined for each run by using known quantities of CKLP1 and levcromakalim to verify that the instrument recorded values consistent with the established standard curve. The effect of carryover was evaluated by injecting blank samples before and after running the standard samples for calibration curves. Unknown samples with signal to noise ratios >10 were recorded as acceptable concentrations. Samples with signal to noise ratios <10 were reported as not detectable (ND). Controls consisted of a double blank (without analytes and internal standard) and a single blank (only internal standard). The linearity of the calibration curves was determined by plotting the ratios of analytes to internal standard peak areas. The curve was fitted by least squares regression with a 1/x weighting for both CKLP1 and levcromakalim. Data was collected from 3–6.4 minutes for CKLP1 and 4–8 minutes for both levcromakalim and flavopiridol. Waters MassLynx Intellistart software v4.1 was used for analysis.
(§3) All experiments with animals were pre-approved by the Institutional Animal Care and Use Committee of the Mayo Clinic, Rochester, MN and adhered to the recommendations in the Guide for the Care and use of Laboratory Animals of the National Institutes of Health, and the tenets of the ARVO Statement for the Use of Animals in Vision Research. Female Dutch-belted pigmented rabbits (age 7 months) were obtained from Covance Research Products, Inc. (Denver, PA). Rabbits were housed in pairs and kept in a climate controlled room with 12 h light and dark cycles. Animals had unrestrained access to water and standard rabbit food pellets at all times. Upon receipt, animals were acclimated for at least 5 days before initiation of the experiment. IOP was measured with a handheld rebound tonometer (Icare Tonovet, Colonial Medical Supply, Franconia, NH, USA) in conscious and minimally restrained, non-anesthetized rabbits as previously described. Briefly, daily IOP was calculated from the average of 3 independent IOP measurements at 3 different time points each day. These time points corresponded to 1 h, 4 h and 23 h post treatment on any given day. Rabbits that needed to be handled for IOP were subjected to sham IOP measurements for two days prior to initiation of experiment. Rabbits (n = 3) were injected intravenously through the right ear vein with CKLP1 as a bolus dose equal to 0.25 mg/kg body weight. Additional rabbits were treated topically through instillation of 50 μl eye drops of a 10 mM (4.1 mg/ml) solution of CKLP1 in sterile PBS. […]

[3] = Plasma pharmacokinetics after topical eye drops of CKLP1, days 1, 4 and 8 (LC-MS/MS); type: in vivo, Dutch-belted pigmented rabbits; conditions: for AUC(0-t) / Cmax / half-life / Tmax: female, Dutch-belted pigmented, rabbit, topical or ocular; for AUC(0-t) / Cmax / half-life / Tmax / Clast / Tlast: plasma; for Cmax: read-out: Cmax; for half-life: read-out: Half-life (converted); for Tmax: read-out: Tmax (converted)
Method: as §1, §2, §3

[4] = Concentration in aqueous and vitreous humor after topical CKLP1 for 1, 4 or 8 days (LC-MS/MS); type: in vivo, Dutch-belted pigmented rabbits; conditions: topical CKLP1 both eyes, days 1, 4 and 8, collected after the 24 h blood sample; for concentration at 24 h: female, Dutch-belted pigmented, rabbit
Method: as §1, §2, §3

[5] = Tissue and fluid distribution after 90 days of daily topical CKLP1 (LC-MS/MS); type: in vivo, Dutch-belted pigmented rabbits; conditions: topical eye drops 10 mM CKLP1, 90 consecutive days
Method: as §1, §2, §3

[6] = rabbit, intravenous 0.25 mg/kg CKLP1
[7] = eye drops 10 mM CKLP1 both eyes once daily, Day 4
[8] = eye drops 10 mM CKLP1 both eyes once daily, Day 8
[9] = eye drops 10 mM CKLP1 both eyes, Day 1

**Q.** Which Solubility in water [1] does the source give for `CC1(C)Oc2ccc(C#N)cc2C(N2CCCC2=O)C1O` (stereo not drawn) [Cromakalim, cromakalim, reference compound] here?
**A.** insoluble in water

**Q.** With `CC1(C)Oc2ccc(C#N)cc2[C@@H](N2CCCC2=O)[C@@H]1O` [Levcromakalim, levcromakalim, reference compound] as the molecule, how does the AUC(0-t) ([2]; female, Dutch-belted pigmented, rabbit, intravenous 0.25 mg/kg CKLP1) read?
**A.** 120 ± 93.7 ng·h/mL

**Q.** What about the Cmax ([2]; female, Dutch-belted pigmented, rabbit, intravenous 0.25 mg/kg CKLP1, read-out: Cmax) of the same molecule?
**A.** 10.6 ± 1.2 ng/mL

**Q.** What about the half-life ([2]; female, Dutch-belted pigmented, rabbit, intravenous 0.25 mg/kg CKLP1, read-out: Half-life) of the same molecule?
**A.** 1.42 ± 0.617 h

**Q.** And the Tmax ([2]; female, Dutch-belted pigmented, rabbit, intravenous 0.25 mg/kg CKLP1, read-out: Tmax (converted))?
**A.** 1.02 h

**Q.** And the “Peak concentration (Cmax) of levcromakalim relative to CKLP1” value ([2]; intravenous CKLP1, fold less than CKLP1)?
**A.** ~200 fold

**Q.** And the Clast [2, 6]?
**A.** 4.4 ± 4.3 ng/mL

**Q.** What about the Tlast [2, 6] of the same molecule?
**A.** 16.0 ± 8.9 h

**Q.** What about the AUC(0-t) [3, 7] of the same molecule?
**A.** 10.9 ± 6 ng·h/mL

**Q.** What about the Cmax [3, 7] of the same molecule?
**A.** 0.9 ± 0.7 ng/mL

**Q.** And the half-life [3, 7]?
**A.** 25.8 ± 13.7 h

**Q.** And the Tmax [3, 7]?
**A.** 3.33 h

**Q.** What about the AUC(0-t) [3, 8] of the same molecule?
**A.** 10.2 ± 0.3 ng·h/mL

**Q.** And the Cmax [3, 8]?
**A.** 0.6 ± 0.3 ng/mL

**Q.** And the half-life [3, 8]?
**A.** 12.2 ± 5.6 h

**Q.** And the Tmax [3, 8]?
**A.** 2.33 h

**Q.** And the AUC(0-t) [3, 9]?
**A.** 6.1 ± 2 ng·h/mL

**Q.** What about the Cmax [3, 9] of the same molecule?
**A.** 0.4 ± 0.1 ng/mL

**Q.** And the half-life [3, 9]?
**A.** 13.2 ± 2.6 h

**Q.** And the Tmax [3, 9]?
**A.** 6.67 h

**Q.** What about the Clast [3, 7] of the same molecule?
**A.** 0.3 ± 0.1 ng/mL

**Q.** And the Tlast [3, 7]?
**A.** 24.0 ± 0.0 h

**Q.** What about the Clast [3, 8] of the same molecule?
**A.** 0.2 ± 0.1 ng/mL

**Q.** And the Tlast [3, 8]?
**A.** 18.7 ± 9.2 h

**Q.** And the Clast [3, 9]?
**A.** 0.1 ± 0.1 ng/mL

**Q.** What about the Tlast [3, 9] of the same molecule?
**A.** 24.0 ± 0.0 h

**Q.** And the “Amount in plasma after topical CKLP1” value ([3]; topical 10 mM CKLP1 in the eye)?
**A.** trace amounts

**Q.** And the concentration at 24 h ([4]; aqueous humor, read-out: Concentration in aqueous humor)?
**A.** < 0.3 ng/mL

**Q.** And the concentration at 24 h ([4]; vitreous humor, read-out: Concentration in vitreous humor)?
**A.** < 0.3 ng/mL

**Q.** What about the “Concentration in aqueous humor” value [4] of the same molecule?
**A.** low levels

**Q.** And the “Concentration in vitreous humor” value [4]?
**A.** low levels

**Q.** What about the “Concentration in Brain” value [5] of the same molecule?
**A.** not detected

**Q.** What about the “Concentration in Heart” value [5] of the same molecule?
**A.** not detected

**Q.** And the “Concentration in Liver” value [5]?
**A.** 5.9 ± 4.3 (n = 4/6) ng/g

**Q.** And the “Concentration in Lung” value [5]?
**A.** 1.5 ± 0.0 ng/g and 1.5 ± 0.0 (n = 6/6) ng/g

**Q.** What about the “Concentration in Muscle” value [5] of the same molecule?
**A.** not detected

**Q.** And the “Concentration in Plasma” value [5]?
**A.** no detectable levels

**Q.** What about the “Concentration in aqueous humor” value [5] of the same molecule?
**A.** 0.2 ± 0.1 (n = 4/6) ng/ml

**Q.** What about the “Concentration in vitreous humor” value [5] of the same molecule?
**A.** 0.1 ± 0.0 (n = 3/6) ng/ml

**Q.** What about the “Concentration in Liver” value ([5]; listed as levcromakalim) of the same molecule?
**A.** 5.9 ± 4.3 ng/g

**Q.** And the “Concentration in aqueous humor” value ([5]; listed as levcromakalim)?
**A.** 0.2 ± 0.1 ng/mL

**Q.** What about the “Concentration in vitreous humor” value ([5]; listed as levcromakalim) of the same molecule?
**A.** 0.1 ± 0.0 ng/mL
